# Test results from PubChem BioAssay AID489024 (Sanford-Burnham Center for Chemical Genomics, 2010).
# pEC50: −log10 of the molar value. Calls of active or inactive are those of the source.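 The calls were made as follows: active = compounds whose mean EC50, the dose giving half the maximal reporter activation, is at or below a set limit; inactive = the rest.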
# Target: CHO-CHOP luciferase reporter, UPR activation, luminescence
# Experiment: activators of PERK-eIF2a-CHOP UPR arm, confirmation, CHO-CHOP cells, luciferase luminescence (AID 489024);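 also: compounds added alone to reporter cells with no tunicamycin stress co-treatment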
Compound,pEC50,EC50
Cn1c(/C=C/c2ccc([N+](=O)[O-])o2)nc2ccccc2c1=O,5.16,
O=C(N/N=C\c1cc2c(cc1Cl)OCO2)c1ccc(Br)s1,,> 80 µM (inactive)
O=C(/C(=C/c1ccc(Cl)cc1)c1nc2ccccc2[nH]1)c1cccs1,5.34,
COc1ccc2c(c1OC)C(=O)OC2Nc1nc(-c2ccccc2)cs1 (stereo unspecified),,> 80 µM (inactive)
CCc1ccc2nc(N(CCCN(C)C)C(=O)c3ccc(S(=O)(=O)N4CCc5ccccc5C4)cc3)sc2c1,5.15,
CCOc1cc(/C=C2/C(=N)N3C=CSC3=NC2=O)ccc1OCCCOc1ccccc1C,,inactive
Cc1ccc(C(=O)C(C(=O)/C=C/c2ccccc2)=C2SCCCS2)cc1,4.84,
FC(F)(F)c1nnc(-c2ccccc2)nc1Sc1ccccc1,5.09,
NC(N)=N/N=C/c1ccc(N(c2ccccc2)c2ccccc2)cc1,,> 80 µM (inactive)
Cc1cccc(Nc2nc(-c3ccccn3)cs2)n1,4.97,
O=C(Oc1oc(-c2ccco2)nc1C=Nc1ccc(Cl)cc1)c1ccco1,5.05,
CCOC(=O)/C(=C\c1ccccc1)C(=O)c1cc(C(C)=O)c(Nc2ccccc2)s1,5.20,
Cc1ccc(S/C=C\C(=O)c2ccccc2)cc1,,> 80 µM (inactive)
Oc1ccc(-c2nc(-c3ccc(O)c(O)c3)cs2)cc1,5.05,
CCOC(=O)C1=C(Cc2ccc(Cl)cc2)C(=O)c2ccccc2C1=O,,> 80 µM (inactive)
Cc1cc(-n2c(C)cc(C(=O)CCl)c2C)no1,5.11,
COC(=O)c1cc(=O)n(CCc2ccc(OC)c(OC)c2)c(=Nc2ccc(F)c(Cl)c2)s1,4.77,
Oc1c(N=Nc2ccccn2)ccc2ccccc12,5.19,
Cn1c(-c2cccc(OCc3ccccc3)c2)nc2c1c(=O)[nH]c(=O)n2Cc1ccccc1,4.86,
Cc1ccc(Sc2nc(-c3ccccc3)nnc2C(F)(F)F)cc1,,> 80 µM (inactive)
Oc1ccc(-c2csc(-c3ccccc3)n2)cc1O,5.25,
Oc1ccc(CN2CCc3ccccc3C2)c2cccnc12,4.86,

Compound,pEC50,EC50
O=C(Oc1ccccc1/C=C\C(=O)c1cc2ccccc2o1)c1ccccc1,4.89,
CCCCNC1C(CC)C(CCC)C(C#N)(C#N)C1(C#N)C#N (stereo unspecified),,> 80 µM (inactive)
CCc1nc(N=Nc2c(O)[nH]c3ccccc23)c2c3c(sc2n1)CCC3,4.86,
CNC[C@@H](Cc1ccccc1)NC[C@@H](CC1CCCCC1)NCCCc1ccccc1,5.33,
CSC(=S)N/N=C(\C)c1ccccc1,4.91,
O=[N+]([O-])c1cc(O)c2ncccc2c1,4.88,
COc1ccc(C2c3ccc4ccccc4c3Oc3ncn(CCCN(C)C)c(=N)c32)cc1 (stereo unspecified),5.17,
O=C(/C(=C/c1ccc(Cl)cc1)c1nc2ccccc2[nH]1)c1ccccc1,5.18,
C=CCN=c1scc(C)n1/N=C/c1ccc(O)c(O)c1,5.52,
CCOC(=O)c1cnc(Nc2nc3ccccc3o2)nc1CSC(=S)N(CC)CC,6.04,
CCn1c(-c2ccccc2)c(C(=O)CCl)c2ccccc21,5.07,
Cc1ccc2oc(Nc3nc(-c4ccccc4)cc(=O)[nH]3)nc2c1,5.13,
COc1ccc(C(=O)Sc2ccc(Cl)cc2)cc1OC,5.03,
O=C(Nc1cccc(-c2nc3cccnc3s2)c1)C1c2ccccc2Oc2ccccc21,5.16,
O=C(/C=C/c1ccc(O)c(O)c1)c1ccccc1O,5.33,
COc1ccc(N2C(=O)/C(=C/C=C/c3ccccc3[N+](=O)[O-])C(=O)NC2=S)cc1,,> 80 µM (inactive)
COc1ccc(N=Cc2c(O)c3ccccc3oc2=O)cc1,5.06,
CS(=O)(=O)Oc1ccc2c(c1)O/C(=C\C=C\c1ccccc1)C2=O,,inactive
N#C/C(=C\c1ccc([N+](=O)[O-])o1)C(=O)Nc1ccc(F)cc1,4.77,
CC(=O)N(\C=C/C=C/C=C1\Sc2ccccc2C1=O)c1ccccc1,,> 80 µM (inactive)
COc1ccccc1N1CCN(Cc2ccc(O)c3ncccc23)CC1,4.83,
C/C(=N\NC(=O)c1ccccc1OCc1ccc(F)cc1)c1ccccn1,5.31,

Compound,pEC50,EC50
COc1cc(/C=C/C(=O)N2C(=O)c3cccc(N)c3C2=O)cc(OC)c1OC,,> 80 µM (inactive)
COc1ccc(-c2cc(=O)oc3c(C)c(OC(=O)c4cccs4)ccc23)cc1,,inactive
Cc1[nH]c2c(C)cccc2c1CCNC(=O)c1ccc2c(c1[N+](=O)[O-])C(=O)c1ccccc1C2=O,5.19,
C=CCn1c(O)c(N=NC(=S)Nc2ccccc2F)c2cc(S(=O)(=O)N3CCOCC3)ccc21,5.13,
COc1cc(C(=O)Oc2c(CN3CCOCC3)cc(Cl)c3cccnc23)cc(OC)c1OC,,inactive
COc1ccccc1C(=O)NC(=S)NNC(=O)c1sc2ccccc2c1Cl,,inactive
O=C(NCc1cccnc1)/C(=C\c1ccc(-c2ccc(Br)cc2)o1)S(=O)(=O)c1ccccc1,5.18,
COc1ccc(/C=N/Nc2cc(C)nc(-n3nc(C)cc3C)n2)c(OC)c1,5.14,
COCCN=c1scc(-c2cccs2)n1/N=C/c1ccc(O)c(O)c1O,,inactive
CCOC(=O)c1c(C)oc2c1c(C(c1cccnc1)N1CCCCC1)c(O)c1ccccc12 (stereo unspecified),4.82,
O=C(COC(=O)c1ccccc1C(=O)c1ccc(Cl)c([N+](=O)[O-])c1)NC1CCCCCC1,,> 80 µM (inactive)
O=C(Nc1ccc(Cl)cc1)/C(=C/c1cccc(O)c1)c1nc2ccccc2s1,,> 80 µM (inactive)
C[C@@H]1CN([C@H](C)CO)C(=O)c2cc(NC(=O)Nc3ccc(C(F)(F)F)cc3)ccc2O[C@H]1CN(C)Cc1ccc(Cl)c(Cl)c1,,> 80 µM (inactive)
CCOc1ccc(-c2nnc(SCC(=O)Nc3ccc4c(c3)c3ccccc3n4CC)n2N)cc1,4.90,
CC1=C/C(=N\OC(=O)/C=C/c2ccccc2)C(C)=CC1=O,,> 80 µM (inactive)
O=C(NCc1cccnc1)/C(=C/c1ccc(-c2ccc(Cl)cc2)o1)S(=O)(=O)c1ccccc1,5.21,
O=C(CCl)Nc1cccc(CP(=O)(c2ccccc2)c2ccccc2)c1,,> 80 µM (inactive)
O=C(N/N=C/c1ccccn1)c1sc2ccccc2c1Cl,5.14,
Cc1cc(C(=O)c2ccc(Cl)cc2)c(NC(=O)CCl)s1,4.79,
CCCCCCCCCCn1c2c(c(=N)c3c1CCC3)CCC2,4.85,
CCOC(=O)Cc1csc(/N=C/c2c(O)n(-c3ccc(C)c(C)c3)c(=O)c3ccccc23)n1,4.97,
COc1ccc(OC)c(/C=C/C(=O)N2C(=O)c3cccc(N)c3C2=O)c1,,inactive

Compound,pEC50,EC50
S=C1SCN(Cc2ccccn2)CN1Cc1ccco1,,> 80 µM (inactive)
C/C(=N\NC(=O)c1cc(-c2cccs2)nc2ccccc12)c1ccccn1,5.30,
O=[N+]([O-])c1ccc2nc(Cl)nc(-c3ccccc3)c2c1,4.90,
CCCC[C@@H](C)C[C@@H](C)C(=O)N(C)[C@@H](CC(C)C)C(=O)N[C@H](C(=O)N(C)[C@H](C(=O)N1C[C@@H](O)C[C@H]1C(=O)N1C(=O)C=C[C@@H]1C)C(C)C)C(C)OC(C)=O (stereo partly specified),4.98,
Cc1cccnc1Nc1nc(-c2ccc(O)c(O)c2)cs1,5.46,
Cc1cc(C(=O)CCl)c(C)n1CCc1ccccc1,5.10,
C/C(=N\NC(=O)c1ccc(Cl)c(Cl)c1)c1ccccn1,5.49,
O=C(Nc1nc(-c2ccccn2)cs1)c1ccc(Cl)s1,5.21,
O=C(CCN1C(=O)/C(=C\c2ccccc2F)SC1=S)N1CCCCC1,,> 80 µM (inactive)
Cc1nc([N+](=O)[O-])c(Br)n1CC(=O)c1ccc(Br)cc1,,> 80 µM (inactive)
Cc1cc(O)c(-c2cc(O)c(C)cc2O)cc1O,,> 80 µM (inactive)
CCOC(=O)C(=Cc1ccc(OCc2ccc([N+](=O)[O-])cc2)c(OC)c1)C(=O)OCC,5.19,
COc1ccccc1N=c1oc2c(OC)cccc2cc1C(=O)NCc1ccco1,,> 80 µM (inactive)
CC1CCC/C=C/C2CC(O)CC2C(O)/C=C/C(=O)O1 (stereo unspecified),5.87,
Fc1ccc(NC(=S)Nc2nccs2)cc1,,inactive
Cc1c(C(=O)c2no[n+]([O-])c2C(=O)c2cnn(C)c2C)cnn1C,,> 80 µM (inactive)
COc1ccccc1-c1cc(C(F)(F)F)nc(S(=O)(=O)CCCC(=O)N2CCCCC2C)n1 (stereo unspecified),5.11,
Cn1c(=O)c2c(SCC(=O)Nc3ccccc3F)nc(-c3ccccc3F)nc2n(C)c1=O,4.90,
COc1ccc(/C=C/c2ccc3cccc(O)c3n2)c(OC)c1OC,5.08,
Oc1ccc(/C=N/N2CCN(C3c4ccccc4-c4ccccc43)CC2)cc1O,,inactive
O=S(=O)(Nc1cccc2cccnc12)c1ccc(S(=O)(=O)N2CCCC2)cc1,4.86,
CCOC(=O)c1cnc(-n2nc(C)cc2C)nc1NC1CCCCC1,,> 80 µM (inactive)

Compound,pEC50,EC50
CCOC(=O)c1cc(-c2ccc(/C=C3/C(=O)N(c4ccc(C(=O)O)cc4)N=C3C)o2)ccc1Cl,4.97,
CCCCCOc1ccc(N2C(=O)CC(N(O)c3ccccc3)C2=O)cc1 (stereo unspecified),4.91,
CC1(C)CCSC(/C=C/c2ccccc2)=N1,,> 80 µM (inactive)
O=C1NC(=O)N(Cc2ccccc2)C(=O)/C1=C\C=C\c1ccco1,,> 80 µM (inactive)
S=C1SCN(CCN2CCOCC2)CN1Cc1ccccc1,4.97,
CC(C)C(=O)N1CCN(c2ccc(NC(=O)c3ccc([N+](=O)[O-])o3)cc2)CC1,5.79,
Oc1ccc(-c2csc(Nc3cccc4ccccc34)n2)cc1O,5.50,
CCOc1ccc(NC(=S)NC(=O)/C=C/c2ccc(OC)c(OC)c2)c([N+](=O)[O-])c1,,> 80 µM (inactive)
O=CC1=C(c2ccccc2)Oc2ccccc2O1,4.91,
Cc1cccc(OCCN2CSC(=S)N(C)C2)c1,,> 80 µM (inactive)
Cc1cccc(N=Nc2ccc(O)c3ncccc23)c1,5.14,
Cc1ccc(Cc2cnc(NC(=O)/C(C#N)=C/c3ccc(-c4cccc([N+](=O)[O-])c4)o3)s2)cc1,4.83,
O=C(O)CC1CCC(=C(Cl)Cl)C1 (stereo unspecified),,> 80 µM (inactive)
COc1ccccc1-c1cc(C(F)(F)F)nc(S(=O)(=O)CCCC(=O)NCc2ccc(F)cc2)n1,5.12,
Oc1cc(-c2ccncc2)cc2cccnc12,,> 80 µM (inactive)
COc1ccc(C2Nc3ccc4ccccc4c3-c3c2c(=O)oc2ccccc32)cc1 (stereo unspecified),,> 80 µM (inactive)
CCOC(=O)C(=Cc1ccc(-n2cncn2)cc1)C(=O)OCC,4.94,
CN1C(=O)NC(=O)/C(=C\C=C\c2ccccc2[N+](=O)[O-])C1=O,4.98,
